Source: US7045531B1, “Composition comprising a metal chelator and a method of treating amyloidosis by administering the metal chelator” (The General Hospital Corporation, priority 1997, dated 2006)
Read-outs that look alike come from different tables or passages of the source.

Assays:
AD = details: twice daily deep intramuscular injections; cited from earlier work
Aβ1-42 [1] = target: T1, Aβ1-42 (Homo sapiens, UniProt P05067); assay: Effect of metal chelators on H2O2 production from Aβ1-42; assay type: biochemical; details: chelator 200 μM; 1 μM Fe^3+
Aβ1-40 = Aβ1-40 (Homo sapiens, UniProt P05067); details: pH 7.4; EDTA chelation
[2] = tested on: Cu^2+-induced Aβ1-40 or Aβ1-42 SDS-resistant polymers; assay: Dissolution of in vitro generated SDS-resistant Aβ polymers; assay type: biochemical, human; details: polymers generated at pH 7.4
Aβ1-42 [3] = target: T1, Aβ1-42; assay: Modulation of SDS-resistant polymerization of Aβ1-42; assay type: biochemical; details: TCEP 100 μM; with and without Cu^2+; over 3 days
Protocol: Solution concentrations of metal ion and H2O2 were 30 μM and 100 μM, respectively. […] Argon was continuously bubbled through the buffer for 2 h (at 20° C.) before the remainder of the incubation components were added.
It is possible that the decreased polymerization may be due to chelation of Cu^2+ by BC, however given the low binding affinity of BC for Cu^2+ compared with Aβ, it seems likely that the chelation of […] by BC prevents it from inducing SDS-resistant Aβ polymerization. Therefore, Aβ may undergo a hydroxyl radical modification that promotes its assembly into SDS-resistant polymers.

[4] = cited from earlier work; for Kd: physiological pH
[5] = SDS-resistant polymerization of Aβ peptides with Cu^2+ (Western blot, image analysis); assay type: biochemical; details: after 5 d; for conversion of the monomer to dimer / conversion of the monomer to trimer: Cu^2+ 30 μM
Protocol: Following incubation (37° C.), aliquots of each reaction (2 ng peptide) were collected at 0 d, 1 d, 3 d and 5 d and western blotted using anti-Aβ monoclonal antibody 8E10 (FIG. 9). Migration of the molecular size markers are indicated (kDa). […] It should be noted that other means of visualizing and/or determining the presence or absence of polymerization other than western blot analysis may be used. Such other means include but are not limited to density sedimentation by centrifugation of the samples.
As above, electronic images captured using the Fluoro-S Image Analysis System (Bio-Rad, Hercules, Calif.) were analyzed using Multi-Analyst Software (Bio-Rad, Hercules, Calif.).
(0–30 μM) at pH 7.4 and 6.6 and the samples analyzed by Western blot and the signal quantitated using the Fluoro-S Image Analysis System (Bio-Rad, Hercules, Calif.) as previously described.

[6] = Metal reduction assay, Fe^3+ (BP indicator); assay type: biochemical; details: Fe^3+ 10 μM; PBS pH 7.4; 1 hr, 37° C.
Protocol: (§1) The metal reduction assay was performed using a 96-well microtiter plate (Costar) based upon a modification of established protocols (Landers, J. W., et al., Amer. Clin. Path. 29:590 (1958); Landers. J. W. et al., Clinica Chimica Acta 3:329 (1958)). Polypeptides (10 μM) or Vitamin C (100 μM), metal ions (10 μM, Fe(NO3)3 or Cu(NO3)2), and reduced metal ion indicators, bathophenanthrolinedisulfonic acid (BP, for Fe^2+, Sigma, 200 μM) or bathocuproinedisulfonic acid (BC, for Cu^+, Sigma, […]), were coincubated in phosphate buffered saline (PBS), pH 7.4, for 1 hr at 37° C. The metal ion solutions were prepared by direct dilution in the buffer from their aqueous stocks purchased from National Institute of Standards and Technology (NIST). Absorbances were then measured at 536 nm (Fe^2+-BP complex) and 483 nm (Cu^+-BC complex), respectively, using a 96-well plate reader (SPECTRAmax 250, Molecular Devices, Calif.). In control samples, both metal ion and indicator were present to determine the background buffer signal. As a further control, both metal ion and peptide were present in the absence of indicator to estimate the contribution of light scattering due to turbidity to the absorbance reading at these wavelengths. The net absorbances (ΔA) at 536 nm or 483 nm were obtained by deducting the absorbances from these controls from the absorbances generated by the peptide and metal in the presence of the respective indicator.
The concentrations of reduced metal ions (Fe^2+ or Cu^+) were quantified based on the formula: Fe^2+ or Cu^+ (˜M)=A*10^6/(L*M), where L is the measured equivalent vertical pathlength for a well of 300 μL volume as described in the instrument's specifications manual (0.856 cm for Fe^2+; 1.049 cm for Cu^+); M is the known molecular absorbance (M^−1 cm^−1) which is 7124 (for Fe^2+-BP complex) or 2762 (for Cu^+-BC complex).

[7] = Metal reduction assay, Cu^2+ (BC indicator); assay type: biochemical; details: Cu^2+ 10 μM; PBS pH 7.4; 1 hr, 37° C.
Protocol: as §1, with “Polypeptides” for “The metal reduction assay was performed using a 96-well microtiter plate (Costar) based upon a modification of established protocols (Landers, J. W., et al., Amer. Clin. Path. 29:590 (1958); Landers. J. W. et al., Clinica Chimica Acta 3:329 (1958)). Polypeptides”

[8] = Aβ metal-capture ELISA, competition analysis of binding to Cu^2+; details: pH 7.4; read-out: Kd, high affinity saturable Cu^2+ binding site
Protocol: Aβ1-40 (1.5 ng/well) was incubated (37° C., 2 hr) in the wells of Cu^2+ coated microtiter plates (Xenopore, Hawthorne, N.J.) with increasing concentrations of Cu^2+ (1–100 nM) as described by Moir et al., Journal of Biological Chemistry (submitted). Remaining ligand binding sites on well surfaces were blocked with 2% gelatin in tris-buffered saline (TBS) (3 hr at 37° C.) prior to overnight incubation at room temperature with the anti-Aβ mAb 6E10 (Senetek, Maryland Heights, Mich.). Anti-mouse IgG coupled to horseradish peroxidase was then added to each well and incubated for 3 hr at 37° C. Bound antibodies were detected by a 30 minute incubation with stable peroxidase substrate buffer/3,3′,5,5′-Tetramethyl benzidine (SPSB/TMB) buffer, followed by the addition of 2 M sulfuric acid and measurement of the increase in absorbance at 450 nm.
All assays were performed in triplicate and are means±SD, n=3. […] The affinity of Aβ for Cu^2+ is higher than that for Zn^2+ (Bush, A. I., et al., J. Biol. Chem. 269: 12152 (1994)). […] This is supported by the fact that there is both a pH sensitive and insensitive interaction with different metal ions.

[9] = Cu^+ generation / metal reduction (Example 2); assay type: biochemical; details: 10 μM in PBS; Cu^2+ 10 μM; 30 minutes, 37° C.
Protocol: This method is modified from a protocol assaying serum copper and iron (Landers, J. W., et al., Amer. J. Clin. Path. 29:590 (1958)). It is based on the fact that there are optimal visible absorption wavelengths of 483 nm and 535 nm for Cu^+ complexed with bathocuproinedisulfonic (BC) anion and Fe^2+ coordinated by bathophenanthrolinedisulfonic (BP) anion, respectively.
Aβ (10 μM in PBS, pH 7.4 or 6.8, as shown) was incubated for 30 minutes (37° C.) in the presence of Cu^2+ 10 μM±Zn^2+ 10 μM). Cu^+ levels (n=3, ±SD) were assayed against a standard curve.

[10] = TBARS assay of OH. production by peptides; assay type: biochemical; details: 1 μM Fe^3+ or Cu^2+
Protocol: The Thiobarbituric Acid-Reactive Substance (TBARS) assay for incubation mixtures with Fe^3+ or Cu^2+ was performed in a 96-well microtiter format modified from established protocols (Gutteridge et al. Biochim. Biophys. Acta 759: 38–41 (1983)). Aβ peptide species (10 μM) or Vitamin C (100 μM), were incubated with Fe^3+ or Cu^2+ (1 μM) and deoxyribose (7.5 mM, Sigma) in PBS, pH 7.4. Following incubation (37° C., 1 hour), glacial (17 M) acetic acid and 2-thiobarburic acid (1%, w/v in 0.05 M NaOH, Sigma) were added and heated (100° C., 10 min). The final mixtures were placed on ice for 1–3 minutes before absorbances at 532 nm were measured. The net absorbance change for each sample were obtained by deducting the absorbance from a control sample consisting of identical chemical components except for the Vitamin C or Aβ peptides.

T1 sequence (P05067 672-713 limits assumed): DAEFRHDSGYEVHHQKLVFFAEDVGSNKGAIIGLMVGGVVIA
Sequence of Aβ1-40 (P05067 672-711 limits assumed): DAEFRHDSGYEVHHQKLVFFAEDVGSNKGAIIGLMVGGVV

## CC(=O)N(O)CCCCCNC(=O)CCC(=O)N(O)CCCCCNC(=O)CCC(=O)N(O)CCCCCN [DFO, Desferrioxamine]
AD
  side effects: anaemia
Aβ1-42 [1]
  effect on H2O2 formation by Aβ1-42: no effect

## O=C(O)CN(CCN(CC(=O)O)CC(=O)O)CC(=O)O [EDTA, ethylenediaminetetra acetic acid]
Aβ1-40
  reversibility of Cu^2+-induced Aβ1-40 aggregation: reversible
[2]
  effect on amount of Aβ1-40 or Aβ1-42 SDS-resistant polymers: less effective

## Cl.O=C(O)CCP(CCC(=O)O)CCC(=O)O [TCEP, Tris(2-Carboxyethyl)-Phosphine Hydrochloride]
Aβ1-42 [3]
  effect on level of polymerization of Aβ1-42: significantly reduced the level of polymerization

## Aβ1-40: synthetic human Aβ1-40 peptide
[4]; read-out: KD, high affinity zinc binding, 1:1 (Zn^2+:Aβ)
  Kd: 107 nM
[4]; read-out: KD, low affinity zinc binding, 2:1 stoichiometry
  Kd: 5200 nM
[5]; pH 6.6
  conversion of the monomer to dimer: 29%
  conversion of the monomer to trimer: 2%
[5]; pH 7.4
  conversion of the monomer to dimer: 42%
  conversion of the monomer to trimer: 9%
[5]; no metal, pH 6.6, 7.4 or 9.0
  peptide converted to the SDS-resistant dimer: Less than 4%
[6]
  available Fe^3+ reduced: 12%
[7]
  available Cu^2+ reduced: 60%
[8]
  Kd: 0.9 nM

## rat Aβ1-40: Rat/mouse Aβ1-40 with substitutions R5G, Y10F, H13R (DAEFGHDSGFEVRHQKLVFFAEDVGSNKGAIIGLMVGGVV; Amyloid-beta protein 40; UniProt P12023 672-711, looked up, fragment)
[9]
  Cu^2+ reduction / redox reactivity: does not manifest the redox reactivity
[4]
  KA, zinc, single binding site: 3.8 µM
[6]
  available Fe^3+ reduced: did not significantly facilitate the reduction of Fe^3+
[7]
  available Cu^2+ reduced: reduced no Cu^2+
[10]
  OH. generation: did not generate OH.
